Source: patent US20250137059A1, “ACTIVATED RAS AS THERAPEUTIC AND DIAGNOSTIC TARGET FOR NEUROFIBROMATOSIS AND USE THEREOF” (THE ASAN FOUNDATION, priority 2021, published 2025)

What was measured:
Type in all cases: cell-based, human
[1] = system: phosphorylated ERK (p-ERK); test: Electrophoresis comparison of p-ERK expression in fibroblasts upon Ataluren treatment (FIG. 4); details: Ataluren 20 μg/ml or 30 μg/ml, electrophoresis (FIG. 4); for expression of p-ERK: fibroblasts of neurofibromatosis patients in which the activity of Ras proteins has been decreased
Protocol: (§1) The skin fibroblasts from donated normal individuals and neurofibromatosis patients were treated with Ataluren at concentrations of 20 μg/ml and 30 μg/ml and cultured, in a DMEM supplemented with 10% FBS and 1% penicillin-streptomycin. When the cells were cultured until the density reached 70% to 80% of a container, the medium was replaced with an FBS-free medium, and the cells were cultured and underwent a starvation process for 24 hours. Next, the cells were transferred to an FBS-containing medium, treated with EGF, which is a Ras activator, by dilution to a concentration of 100 ng/ml, and then allowed for a reaction at 37° C. for 5 minutes to prepare each sample. Measurement of the activity of Ras proteins in each sample was performed in the same manner as described in Example 2.
(§2) The same protein of which the Ras activity was measured in Example 3 was subjected to electrophoresis by using NuPAGETM 4-12% Bris-Tris Gel (Invitrogen).

[2] = system: GTP-bound and activated RAS (Ras-GTP) protein; test: G-LISA Ras activation assay in skin fibroblasts after EGF stimulation upon Ataluren treatment; details: skin fibroblasts of neurofibromatosis patients (NF1 stop codon mutation) with increased Ras activity compared to normal individuals; Ataluren 20 μg/ml and 30 μg/ml (FIG. 3: 30 μg/ml); EGF 100 ng/ml
Protocol: The skin fibroblasts from donated normal individuals and neurofibromatosis patients were cultured in a DMEM supplemented with 10% FBS and 1% penicillin-streptomycin. When the cells were cultured until the density reached 70% to 80% of a container, the medium was replaced with an FBS-free medium, and the cells were cultured and subjected to a starvation process for 24 hours. Next, the cells were transferred to an FBS-containing medium, treated with epidermal growth factor (EGF), which is a Ras activator, by dilution to a concentration of 100 ng/ml, and then allowed for a reaction at 37° C. for 5 minutes to prepare each sample. To analyze the activity of the RAS proteins, a G-LISA Ras activation assay biochem Kit of Cytoskeleton Company (Absorbance Based) (Cytoskeleton, Cat No. BK131), which enables the measurement of a small number of cells and a large number of cells at the same time by compensating for the disadvantages of the pull-down assay, was used.
Briefly, in a method of analyzing the activity of the RAS proteins, cells were lysed by using a cell lysis solution included in the kit after treatment with EGF, only the supernatant was obtained, and the proteins contained in the supernatant were quantified. […] Next, an HRP detection reagent was added and a reaction was allowed for 15 minutes at room temperature to measure the absorbance at 490 nm. […]

p-ERK protein = test: Expression ratios of ERK and p-ERK on membrane with ERK and p-ERK antibodies (FIG. 5); details: Ataluren 20 μg/ml or 30 μg/ml (FIG. 5)
Protocol: as §1, §2
To more accurately compare the ERK activity, the electrophoresed proteins were transferred to a hybond-ECL membrane, and the membrane was blocked with 3% skim milk. Next, ERK and p-ERK antibodies were reacted on the membrane at 4° C. for 24 hours, and then washed by using TBST three times. […] The expression ratios of ERK and p-ERK in the washed membrane were measured.

[3] = fibroblasts of normal individuals

## O=C(O)c1cccc(-c2noc(-c3ccccc3F)n2)c1 [Ataluren, 3-[5-(2-fluoro-phenyl)-[1,2,4]oxadiazol-3-yl]-benzoic acid]
[1]
  expression of p-ERK: decreased
[1]; listed as ataluren
  expression of p-ERK: significantly decreased
[1]; [3]
  expression of phosphorylated ERK (p-ERK): no change
[2]
  signal of Ras-GTP (activity of Ras proteins): significantly decreased
p-ERK protein; fibroblasts of neurofibromatosis patients in which the activity of Ras proteins has been decreased
  expression of p-ERK (expression ratios of ERK and p-ERK): decreased
p-ERK protein; [3]
  expression level of p-ERK protein (expression ratios of ERK and p-ERK): slightly increased
